Blank lines part the entries; values can stand above or below the compound they belong to.
Key:
BRD4 long = target: T1, BRD4 long (Homo sapiens, UniProt O60885); assay: BRD4 (long) degradation assay, Western blotting; format: cell-based; details: HEK293T cells
T1 construct: endogenous in cells; host or cells: HEK293T
In short: (§1)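 Cell lines were grown at 37° C with 5% CO2 (HEK293T and C33A in DMEM, A549 in F-12K, 22RV1, LNCaP and Mino in RPMI-1640, K562 and MV-4-11 in IMDM, all with 10% FBS). Lysates were BCA-normalized, then SDS/PAGE Western blots were probed with target-specific antibodies and read by IR680/IR800 fluorescent secondaries on Li-Cor.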

BRD4 short = target: T2, BRD4 short (Homo sapiens, UniProt O60885); assay: BRD4 (short) degradation assay, Western blotting; format: cell-based; details: HEK293T cells
T2 construct: endogenous in cells; host or cells: HEK293T
In short: as §1

Recombinant RNF126 = target: T3, Recombinant RNF126 (Homo sapiens, UniProt Q9BV68); assay: RNF126 Binding Assay, gel-based ABPP
T3 construct: FLAG (C); host or cells: HEK293T
In short: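 FLAG-tagged human RNF126, expressed in HEK293T and purified on anti-FLAG resin, was pretreated with DMSO or covalent ligand for 30 min at 37 °C in PBS. IA-rhodamine was then added for 1 h at RT in the dark. Probe labelling was read by SDS-PAGE in-gel fluorescence.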

HEK293T cells = assay: Quantitative TMT proteomic profiling in HEK293T cells; format: cell-based
Protocol: Cells were treated with either DMSO vehicle or compound (Compound 130, 1 μM) for 24 h and lysate was prepared as described above. Briefly, 25-100 μg protein from each sample was reduced, alkylated and tryptically digested overnight. Individual samples were then labeled with isobaric tags using commercially available TMTsixplex (Thermo Fisher Scientific, P/N 90061) kits, in accordance with the manufacturer's protocols. Tagged samples (20 μg per sample) were combined, dried with SpeedVac, resuspended with 300 μL 0.1% TFA in H2O, and fractionated using high pH reversed-phase peptide fractionation kits (Thermo Scientific, P/N 84868) according to manufacturer's protocol. Fractions were dried with SpeedVac, resuspended with 50 μL 0.1% FA in H2O, and analyzed by LC-MS/MS as described below.
Quantitative TMT-based proteomic analysis was performed as previously described using a Thermo Eclipse with FAIMS LC-MS/MS (King, E. A. et al. Chemoproteomics-Enabled Discovery of a Covalent Molecular Glue Degrader Targeting NF-κB. 2022.05.18.492542 Preprint at https://doi.org/10.1101/2022.05.18.492542 (2022)). […] Only peptide-to-spectrum matches that are unique assignments to a given identified protein within the total dataset are considered for protein quantitation. […]

BTK = target: T4, BTK (Homo sapiens, UniProt Q06187); assay: BTK degradation in MINO lymphoma cancer cells, Western blotting; format: cell-based
T4 construct: endogenous in cells; host or cells: Mino
Protocol: C33A cells were purchased from American Type Culture Collection (ATCC) and were cultured in Dulbecco's Modified Eagle Medium (DMEM) containing 10% (v/v) fetal bovine serum (FBS) and maintained at 37° C. with 5% CO2. 22RV1 cells were purchased from the ATCC and were cultured in RPMI-1640 Medium containing 10% (v/v) FBS and maintained at 37° C. with 5% CO2. HEK293T cells were obtained from the UC Berkeley Cell Culture Facility and were cultured in DMEM containing 10% (v/v) FBS and maintained at 37° C. with 5% CO2. K562 cells were obtained from the UC Berkeley Cell Culture Facility and were cultured in Iscove's Modified Dulbecco's Medium (IMDM) containing 10% (v/v) FBS and maintained at 37° C. with 5% CO2. MV-4-11 cells were obtained from the ATCC and were cultured in IMDM containing 10% (v/v) FBS and maintained at 37° C. with 5% CO2. A549 cells were obtained from the ATCC and were cultured in F-12K Medium containing 10% (v/v) FBS and maintained at 37° C. with 5% CO2. Mino cells were obtained from the ATCC and were cultured in RPMI-1640 Medium containing 10% (v/v) FBS and maintained at 37° C. with 5% CO2. […]
Cells were washed twice with cold PBS, scraped, and pelleted by centrifugation (700 g, 5 min, 4° C.). […] Proteome concentrations were determined using BCA assay and lysate was diluted to appropriate working concentrations. […]

T3 sequence (Q9BV68 whole entry): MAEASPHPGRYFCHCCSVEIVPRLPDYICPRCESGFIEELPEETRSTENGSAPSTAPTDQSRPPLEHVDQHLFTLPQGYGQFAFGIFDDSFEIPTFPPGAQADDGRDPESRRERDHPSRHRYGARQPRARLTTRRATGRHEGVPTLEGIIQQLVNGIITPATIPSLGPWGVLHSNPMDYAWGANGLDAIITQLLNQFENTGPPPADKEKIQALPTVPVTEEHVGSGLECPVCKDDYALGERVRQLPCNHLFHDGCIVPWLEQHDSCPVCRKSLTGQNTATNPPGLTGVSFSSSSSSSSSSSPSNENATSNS
T4 sequence (Q06187 whole entry): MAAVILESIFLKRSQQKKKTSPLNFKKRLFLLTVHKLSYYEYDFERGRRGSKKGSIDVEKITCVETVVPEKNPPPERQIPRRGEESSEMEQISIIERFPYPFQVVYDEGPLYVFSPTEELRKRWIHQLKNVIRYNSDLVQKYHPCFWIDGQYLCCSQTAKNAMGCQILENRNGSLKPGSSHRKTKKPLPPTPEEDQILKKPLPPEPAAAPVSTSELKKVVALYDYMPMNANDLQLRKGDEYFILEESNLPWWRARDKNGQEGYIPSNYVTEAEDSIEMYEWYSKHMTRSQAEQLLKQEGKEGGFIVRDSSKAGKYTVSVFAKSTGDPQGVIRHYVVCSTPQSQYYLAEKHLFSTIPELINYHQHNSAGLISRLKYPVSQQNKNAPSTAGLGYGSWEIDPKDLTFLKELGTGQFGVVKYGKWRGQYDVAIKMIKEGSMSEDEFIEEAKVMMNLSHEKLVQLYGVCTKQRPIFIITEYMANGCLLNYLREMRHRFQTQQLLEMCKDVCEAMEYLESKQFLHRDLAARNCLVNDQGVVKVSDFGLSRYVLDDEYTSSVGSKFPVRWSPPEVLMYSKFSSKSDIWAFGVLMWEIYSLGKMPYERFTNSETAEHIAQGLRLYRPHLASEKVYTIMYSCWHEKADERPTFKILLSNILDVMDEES

Structure (SMILES): COc1ccc(C(=O)/C=C/C(=O)N2CCN(C(=O)C[C@@H]3N=C(c4ccc(Cl)cc4)c4c(sc(C)c4C)-n4c(C)nnc43)CC2)cc1 [Compound 130, (S,E)-1-(4-(2-(4-(4-chlorophenyl)-2,3,9-trimethyl-6H-thieno[3,2-f][1,2,4]triazolo[4,3-a][1,4]diazepin-6-yl)acetyl)piperazin-1-yl)-4-(4-methoxyphenyl)but-2-ene-1,4-dione]
- degradation of BRD4 long isoform, in words (BRD4 long): degradation of both the long and short isoforms of BRD4 in HEK293T cells in a dose-responsive, time-dependent, and proteasome-dependent manner
- degradation of BRD4 short isoform, in words (BRD4 short): degradation of both the long and short isoforms of BRD4 in HEK293T cells in a dose-responsive, time-dependent, and proteasome-dependent manner
- binding to RNF126 (gel-based ABPP), in words (Recombinant RNF126): potent binding
- selectivity of degradation by quantitative proteomic profiling (HEK293T cells): relatively selective degradation of BRD4

- binding to RNF126 (gel-based ABPP), in words (Recombinant RNF126): potent binding
Structure (SMILES): COc1ccc(C(=O)/C=C/C(=O)N2CCC[C@@H](n3nc(-c4ccc(Oc5ccccc5)cc4)c4c(N)ncnc43)C2)cc1 [Compound 131]
- degradation of BTK, in words (BTK): degradation of BTK in MINO lymphoma cancer cells
